Assay results published in PMC10046961, “High-Throughput Screening Assay for Detecting Drug-Induced Changes in Synchronized Neuronal Oscillations and Potential Seizure Risk Based on Ca^2+ Fluorescence Measurements in Human Induced Pluripotent Stem Cell (hiPSC)-Derived Neuronal 2D and 3D Cultures” (Cells, 2023).
Where two headings read alike, the source gives them in different places.

Experiments:
[1] = test system: hiPSC-derived neurons co-cultured with human primary astrocytes in 2D; experiment: Ca2+ transient oscillation assay (FDSS), 2D co-culture; type: cell-based; details: for activation at 0.37 µM / activation at 1.11 µM / activation at 3.33 µM / activation at 10 µM / activation at 0.11 µM / activation at 0.33 µM / activation at 1 µM / activation at 3 µM: Homo sapiens, 1 h, 60 min
How it was run: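 Cultures were 10,000 CW50065 hiPSC excitatory neurons plus 2500 primary human astrocytes per well. Recordings used Cal-520 dye in HBSS/HEPES/glucose at 37 °C, with a 470/540 nm read at 2 Hz. Oscillations were stabilized with 0.04% DMSO, read for 20 min, then read again 60 min after compound addition (final DMSO 0.1%).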

[2] = test system: kainic-acid-induced seizures; details: cited from earlier work
[3] = test system: hiPSC-derived neurons co-cultured with human primary astrocytes in 3D; experiment: Ca2+ transient oscillation assay (FDSS), 3D spheroids; type: cell-based; details: 60 min
How it was run: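 Fura-2 fluorescence was read twice for 20 min each: a baseline 10 min after 0.04% DMSO, and again 60 min after compound addition at nominal final concentration. The 3D co-cultures (1:1 hiPSC neurons from a donor and human astrocytes, 8000 each) matured 5 weeks in BrainPhys medium after a 1-week differentiation.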

[4] = ref PharmaPendium, cited from earlier work
[5] = cited from earlier work
[6] = humans; cited from earlier work
[7] = read-out: Area under the curve - 2D Mean
[8] = read-out: Peak amplitude - 2D Mean
[9] = read-out: Peak-to-peak interval - 2D Mean
[10] = Table 1, peak plasma concentration in men, free therapeutic Cmax

CC(NC(C)(C)C)C(=O)c1cccc(Cl)c1 (stereo not shown) [Bupropion]
activation at 0.37 µM [1, 7]: 14.5% | activation at 0.37 µM ([1]; read-out: Peak Number—2D Mean): 12.7% | activation at 0.37 µM [1, 8]: 2.7% | activation at 0.37 µM ([1]; read-out: Peak width - 2D Mean): 12.8% | activation at 0.37 µM [1, 9]: -5.5% | activation at 1.11 µM [1, 7]: 26.6% | activation at 1.11 µM ([1]; read-out: Peak Number—2D Mean): 6.6% | activation at 1.11 µM [1, 8]: 5.4% | activation at 1.11 µM ([1]; read-out: Peak width - 2D Mean): 26.6% | activation at 1.11 µM [1, 9]: 3.4% | activation at 3.33 µM [1, 7]: 25.5% | activation at 3.33 µM ([1]; read-out: Peak Number—2D Mean): -12% | activation at 3.33 µM [1, 8]: 3.7% | activation at 3.33 µM ([1]; read-out: Peak width - 2D Mean): 29.2% | activation at 3.33 µM [1, 9]: 19.7% | activation at 10 µM [1, 7]: 39.3% | activation at 10 µM ([1]; read-out: Peak Number—2D Mean): 6% | activation at 10 µM [1, 8]: 4.7% | activation at 10 µM ([1]; read-out: Peak width - 2D Mean): 46.5% | activation at 10 µM [1, 9]: 41.8% | effect on kainic-acid-induced seizures in vitro [2]: attenuate | Area under the curve - 3D Mean ([3]; 0.37 µM): 137.5 % change from baseline | Peak Number—3D Mean ([3]; 0.37 µM): 1.3 % change from baseline | Peak amplitude - 3D Mean ([3]; 0.37 µM): 126.7 % change from baseline | Peak width - 3D Mean ([3]; 0.37 µM): 0.0 % change from baseline | Peak-to-peak interval - 3D Mean ([3]; 0.37 µM): 4.1 % change from baseline | Area under the curve - 3D Mean ([3]; 1.11 µM): 159.9 % change from baseline | Peak Number—3D Mean ([3]; 1.11 µM): −8.4 % change from baseline | Peak amplitude - 3D Mean ([3]; 1.11 µM): 134.2 % change from baseline | Peak width - 3D Mean ([3]; 1.11 µM): 9.4 % change from baseline | Peak-to-peak interval - 3D Mean ([3]; 1.11 µM): 15.3 % change from baseline | Area under the curve - 3D Mean ([3]; 3.33 µM): 154.1 % change from baseline | Peak Number—3D Mean ([3]; 3.33 µM): −2.2 % change from baseline | Peak amplitude - 3D Mean ([3]; 3.33 µM): 128.1 % change from baseline | Peak width - 3D Mean ([3]; 3.33 µM): 9.0 % change from baseline | Peak-to-peak interval - 3D Mean ([3]; 3.33 µM): 7.8 % change from baseline | Area under the curve - 3D Mean ([3]; 10 µM): 119.7 % change from baseline | Peak Number—3D Mean ([3]; 10 µM): 12.5 % change from baseline | Peak amplitude - 3D Mean ([3]; 10 µM): 118.0 % change from baseline | Peak width - 3D Mean ([3]; 10 µM): −1.4 % change from baseline | Peak-to-peak interval - 3D Mean ([3]; 10 µM): −3.5 % change from baseline

Cc1ccc(Nc2nccc(N(C)c3ccc4c(C)n(C)nc4c3)n2)cc1S(N)(=O)=O [Pazopanib]
effect on peak number / Ca2+ neuronal oscillations, in words ([1]; 2D format): significantly reduced peak number | activation at 0.37 µM [1, 7]: -1.8% | activation at 0.37 µM ([1]; read-out: Peak Number—2D Mean): -49% | activation at 0.37 µM [1, 8]: -15.8% | activation at 0.37 µM ([1]; read-out: Peak width - 2D Mean): -4.8% | activation at 0.37 µM [1, 9]: 14.6% | activation at 1.11 µM [1, 7]: 7.8% | activation at 1.11 µM ([1]; read-out: Peak Number—2D Mean): 4.4% | activation at 1.11 µM [1, 8]: -3.8% | activation at 1.11 µM ([1]; read-out: Peak width - 2D Mean): 12.6% | activation at 1.11 µM [1, 9]: -2.6% | activation at 3.33 µM [1, 7]: 38.8% | activation at 3.33 µM ([1]; read-out: Peak Number—2D Mean): 11.3% | activation at 3.33 µM [1, 8]: 11.2% | activation at 3.33 µM ([1]; read-out: Peak width - 2D Mean): 27.8% | activation at 3.33 µM [1, 9]: 0.5% | activation at 10 µM [1, 7]: 16.3% | activation at 10 µM ([1]; read-out: Peak Number—2D Mean): 10% | activation at 10 µM [1, 8]: 9.5% | activation at 10 µM ([1]; read-out: Peak width - 2D Mean): 3.7% | activation at 10 µM [1, 9]: 14.2% | Free Cmax [4, 10]: 600 to 1200 nM | Free Cmax ([4]; Table 2, highest plasma concentration in humans after the therapeutic dose): 600 to 1200 nM | seizure risk in humans [5]: does not have a seizure risk | crossing of the blood–brain barrier [6]: does not cross the blood–brain barrier | Area under the curve - 3D Mean ([3]; 0.37 µM): 125.7 % change from baseline | Peak Number—3D Mean ([3]; 0.37 µM): 6.4 % change from baseline | Peak amplitude - 3D Mean ([3]; 0.37 µM): 101.6 % change from baseline | Peak width - 3D Mean ([3]; 0.37 µM): 9.7 % change from baseline | Peak-to-peak interval - 3D Mean ([3]; 0.37 µM): −2.0 % change from baseline | Area under the curve - 3D Mean ([3]; 1.11 µM): 127.9 % change from baseline | Peak Number—3D Mean ([3]; 1.11 µM): −4.2 % change from baseline | Peak amplitude - 3D Mean ([3]; 1.11 µM): 110.2 % change from baseline | Peak width - 3D Mean ([3]; 1.11 µM): 7.7 % change from baseline | Peak-to-peak interval - 3D Mean ([3]; 1.11 µM): 4.1 % change from baseline | Area under the curve - 3D Mean ([3]; 3.33 µM): 116.3 % change from baseline | Peak Number—3D Mean ([3]; 3.33 µM): 0.8 % change from baseline | Peak amplitude - 3D Mean ([3]; 3.33 µM): 107.5 % change from baseline | Peak width - 3D Mean ([3]; 3.33 µM): 4.1 % change from baseline | Peak-to-peak interval - 3D Mean ([3]; 3.33 µM): −3.0 % change from baseline | Area under the curve - 3D Mean ([3]; 10 µM): 117.4 % change from baseline | Peak Number—3D Mean ([3]; 10 µM): −2.0 % change from baseline | Peak amplitude - 3D Mean ([3]; 10 µM): 101.7 % change from baseline | Peak width - 3D Mean ([3]; 10 µM): 8.7 % change from baseline | Peak-to-peak interval - 3D Mean ([3]; 10 µM): 7.5 % change from baseline

CC1(C)S[C@@H]2[C@H](NC(=O)[C@H](N)c3ccc(O)cc3)C(=O)N2[C@H]1C(=O)O [Amoxicillin]
activation at 0.11 µM [1, 7]: 38.3% | activation at 0.11 µM ([1]; read-out: Peak Number—2D Mean): -10.5% | activation at 0.11 µM [1, 8]: 19.3% | activation at 0.11 µM ([1]; read-out: Peak width - 2D Mean): 22.3% | activation at 0.11 µM [1, 9]: 27.3% | activation at 0.33 µM [1, 7]: 23.7% | activation at 0.33 µM ([1]; read-out: Peak Number—2D Mean): 8.3% | activation at 0.33 µM [1, 8]: 5% | activation at 0.33 µM ([1]; read-out: Peak width - 2D Mean): 25.7% | activation at 0.33 µM [1, 9]: 9.3% | activation at 1 µM [1, 7]: 45.8% | activation at 1 µM ([1]; read-out: Peak Number—2D Mean): 27.2% | activation at 1 µM [1, 8]: 8.3% | activation at 1 µM ([1]; read-out: Peak width - 2D Mean): 48% | activation at 1 µM [1, 9]: -16% | activation at 3 µM [1, 7]: 43% | activation at 3 µM ([1]; read-out: Peak Number—2D Mean): 16.2% | activation at 3 µM [1, 8]: 7.5% | activation at 3 µM ([1]; read-out: Peak width - 2D Mean): 47.7% | activation at 3 µM [1, 9]: -7.8% | Free Cmax [4, 10]: 3 to 32000 nM | Area under the curve - 3D Mean ([3]; 0.11 µM): 147.7 % change from baseline | Peak Number—3D Mean ([3]; 0.11 µM): −8.0 % change from baseline | Peak amplitude - 3D Mean ([3]; 0.11 µM): 136.9 % change from baseline | Peak width - 3D Mean ([3]; 0.11 µM): 4.7 % change from baseline | Peak-to-peak interval - 3D Mean ([3]; 0.11 µM): 12.1 % change from baseline | Area under the curve - 3D Mean ([3]; 0.33 µM): 145.7 % change from baseline | Peak Number—3D Mean ([3]; 0.33 µM): 1.4 % change from baseline | Peak amplitude - 3D Mean ([3]; 0.33 µM): 132.0 % change from baseline | Peak width - 3D Mean ([3]; 0.33 µM): 5.5 % change from baseline | Peak-to-peak interval - 3D Mean ([3]; 0.33 µM): 9.0 % change from baseline | Area under the curve - 3D Mean ([3]; 1 µM): 122.0 % change from baseline | Peak Number—3D Mean ([3]; 1 µM): 9.3 % change from baseline | Peak amplitude - 3D Mean ([3]; 1 µM): 130.1 % change from baseline | Peak width - 3D Mean ([3]; 1 µM): −4.5 % change from baseline | Peak-to-peak interval - 3D Mean ([3]; 1 µM): −5.5 % change from baseline | Area under the curve - 3D Mean ([3]; 3 µM): 125.7 % change from baseline | Peak Number—3D Mean ([3]; 3 µM): 18.3 % change from baseline | Peak amplitude - 3D Mean ([3]; 3 µM): 123.5 % change from baseline | Peak width - 3D Mean ([3]; 3 µM): 1.2 % change from baseline | Peak-to-peak interval - 3D Mean ([3]; 3 µM): −1.2 % change from baseline
